Measured values published in patent US8658800B2 (priority 2010, dated 2014).
Read-outs that look alike come from different tables or passages of the source.

Columns and labels:
[1] = logP by HPLC on reversed-phase columns (C 18), EEC Directive 79/831 Annex V.A8; assay type: physicochemical
Protocol: The logP values reported in the table above and in the Preparation Examples were determined in accordance with EEC Directive 79/831 Annex V.A8 by HPLC (High Performance Liquid Chromatography) on reversed-phase columns (C 18), with the following methods:
The LC-MS determination in the acidic range is carried out at pH 2.7 using the mobile phases 0.1% aqueous formic acid and acetonitrile (contains 0.1% formic acid), linear gradient from 10% acetonitrile to 95% acetonitrile
Calibration was carried out using unbranched alkan-2-ones (having from 3 to 16 carbon atoms) with known logP values (the logP values were determined by the retention times using linear interpolation between two successive alkanones).

[2] = tested on: caterpillars of the armyworm (Spodoptera frugiperda); assay: Spodoptera frugiperda test (SPODFR spray treatment); assay type: in vivo; details: foliar, 168 h, read-out: activity (kill of caterpillars)
Protocol: Spodoptera frugiperda Test (SPODFR Spray Treatment)
Solvents: 78.0 parts by weight of acetone
• 1.5 parts by weight of dimethylformamide Emulsifier: 0.5 part by weight of alkylaryl polyglycol ether
To produce a suitable preparation of active compound, 1 part by weight of active compound is mixed with the stated amount of solvents and emulsifier, and the concentrate is diluted with emulsifier-containing water to the desired concentration.
Discs of maize leaves (Zea mays) are sprayed with an active compound preparation of the desired concentration and, after drying, populated with caterpillars of the armyworm (Spodoptera frugiperda).
After 7 days, the effect in % is determined. 100% means that all caterpillars have been killed; 0% means that none of the caterpillars have been killed.

[3] = tested on: larvae of the mustard beetle (Phaedon cochleariae); assay: Phaedon test (PHAECO spray treatment); assay type: in vivo; details: 168 h, read-out: activity (kill of beetle larvae)
Protocol: Phaedon Test ([…] Spray Treatment) Solvents: 78.0 parts by weight of acetone • • 1.5 parts by weight of dimethylformamide Emulsifier: 0.5 part by weight of alkylaryl polyglycol ether To produce a suitable preparation of active compound, 1 part by weight of active compound is mixed with the stated amount of solvents and emulsifier, and the concentrate is diluted with emulsifier-containing water to the desired concentration. Discs of Chinese cabbage (Brassica pekinensis) are sprayed with an active compound preparation of the desired concentration and, after drying, populated with larvae of the mustard beetle (Phaedon cochleariae).

[4] = HPLC, reversed-phase C 18, acidic range pH 2.7, 0.1% aqueous formic acid/acetonitrile, read-out: log P
[5] = 100 g/ha, sprayed maize leaf discs, after 7 days
[6] = reversed-phase C18 HPLC column, HPLC, reversed-phase C 18, acidic range pH 2.7, 0.1% aqueous formic acid/acetonitrile, read-out: log P
[7] = 100 g/ha, sprayed Chinese cabbage discs, after 7 days

In the case of Cc1cc(Br)cc(OC(F)F)c1N, the chromatographic logP [1, 4] is reported as 2.84.

Cc1cc(C#N)cc(OC(F)F)c1N gave a chromatographic logP [1, 4] of 1.9.

In the case of Cc1cccc(C(=O)NS(C)(=O)=O)c1N, the chromatographic logP [1, 4] is reported as 1.1.

In the case of Cc1cc(Cl)cc(C(=O)NS(=O)(=O)N(C)C)c1NC(=O)c1cc(Cn2cc(C(F)(F)C(F)(F)F)cn2)nn1-c1ncccc1Cl [Compound 1], the chromatographic logP ([1]; pH 2.7) is reported as 3.35.

In the case of Cc1cc(F)cc(C(=O)O)c1NC(=O)c1cc(Cn2nnc(C(F)(F)C(F)(F)F)n2)nn1-c1ncccc1Br [Compound 3], the pest or weed control at 100 g/ha [2, 5] is reported as 100% and the chromatographic logP [1, 6] is reported as 3.16.

For Cc1cc(I)cc(C(=O)NS(C)(=O)=O)c1NC(=O)c1cc(Cn2nnc(C(F)(F)C(F)(F)F)n2)nn1-c1ncccc1Br [Compound 4], the chromatographic logP [1, 6] was 3.39.

With Cc1cccc(C(=O)NS(C)(=O)=O)c1NC(=O)c1cc(Cn2nnc(C(F)(F)F)n2)nn1-c1ncccc1Cl [Compound 5] the pest or weed control at 100 g/ha ([2]; in Zea mays) was 100% and the chromatographic logP ([1]; pH 2.7) was 2.47.

For Cc1cc(Cl)cc(OC(F)(F)F)c1NC(=O)c1cc(Cn2nnc(C(F)(F)F)n2)nn1-c1ncccc1Cl [Compound 10], the pest or weed control at 100 g/ha [2, 5] was 100% and the chromatographic logP [1, 6] was 4.

Work on COC(=O)c1cc(I)cc(C)c1NC(=O)c1cc(Cn2nc(C(F)(F)F)cc2C(F)(F)F)nn1-c1ncccc1Cl [Compound 11] yielded a chromatographic logP [1, 6] of 4.57.

For O=C(O)c1cc(Cl)cc(Cl)c1NC(=O)c1cc(Cn2nc(C(F)(F)C(F)(F)C(F)(F)F)cc2C(F)(F)F)nn1-c1ncccc1Cl [Compound 15], the pest or weed control at 100 g/ha ([3]; in Brassica rapa) was 83% and the chromatographic logP [1, 4] was 4.4.

Compound Cc1cc(C#N)cc(C(=O)O)c1NC(=O)c1cc(Cn2cnc(C(F)(F)F)c2C(F)(F)F)nn1-c1ncccc1Cl [Compound 16] has a pest or weed control at 100 g/ha [3, 7] of 100% and a chromatographic logP [1, 6] of 2.63.

Compound Cc1cc(Cl)cc(C(=O)O)c1NC(=O)c1cc(Cn2nc(C)c(Br)c2C)nn1-c1ncccc1Cl [Compound 17] has a chromatographic logP [1, 6] of 3.16.

Work on Cc1cc(C#N)cc(C(=O)O)c1NC(=O)c1cc(Cn2nc(C(F)F)cc2C(F)F)nn1-c1ncccc1Cl [Compound 18] yielded a chromatographic logP [1, 6] of 2.62.

Work on Cc1cc(F)cc(C(=O)O)c1NC(=O)c1cc(Cn2nnc(C(F)(F)F)n2)nn1-c1ncccc1Cl [Compound 20] yielded a chromatographic logP [1, 6] of 2.75.

Work on O=C(O)c1cc(Cl)cc(Cl)c1NC(=O)c1cc(Cn2nnc(C(F)(F)F)n2)nn1-c1ncccc1Cl [Compound 21] yielded a pest or weed control at 100 g/ha [2, 5] of 83%, a pest or weed control at 100 g/ha [3, 7] of 100% and a chromatographic logP [1, 6] of 3.04.

Compound Cc1cc(Cl)cc(C(=O)O)c1NC(=O)c1cc(Cn2nnc(C(F)(F)C(F)(F)F)n2)nn1-c1ncccc1Cl [Compound 22] has a pest or weed control at 100 g/ha [3, 7] of 100% and a chromatographic logP [1, 6] of 3.44.

In the case of O=C(O)c1cc(Cl)cc(Cl)c1NC(=O)c1cc(Cn2nnc(C(F)(F)C(F)(F)F)n2)nn1-c1ncccc1Cl [Compound 23], the pest or weed control at 100 g/ha [3, 7] is reported as 100% and the chromatographic logP [1, 6] is reported as 3.37.

With O=C(O)c1cc(Cl)cc(Cl)c1NC(=O)c1cc(Cn2nnc(C(F)F)n2)nn1-c1ncccc1Cl [Compound 25] the chromatographic logP [1, 6] was 2.55.

Work on Cc1cc(I)cc(C(=O)O)c1NC(=O)c1cc(Cn2ncc(C(F)(F)F)n2)nn1-c1ncccc1Cl [Compound 27] yielded a pest or weed control at 100 g/ha [2, 5] of 83% and a chromatographic logP [1, 6] of 3.26.

In the case of COC(=O)c1cc(F)cc(C)c1NC(=O)c1cc(Cn2nnc(C(F)(F)F)n2)nn1-c1ncccc1Cl [Compound 29], the pest or weed control at 100 g/ha [2, 5] is reported as 100%, the pest or weed control at 100 g/ha [3, 7] is reported as 83% and the chromatographic logP [1, 6] is reported as 3.33.

For Cc1cccc(S(N)(=O)=O)c1NC(=O)c1cc(Cn2nnc(C(F)(F)F)n2)nn1-c1ncccc1Cl [Compound 32], the chromatographic logP [1, 6] was 2.56.

In the case of CNS(=O)(=O)c1cccc(C)c1NC(=O)c1cc(Cn2nnc(C(F)(F)F)n2)nn1-c1ncccc1Cl [Compound 33], the chromatographic logP [1, 6] is reported as 2.9.

Compound CCC(=O)c1cccc(C)c1NC(=O)c1cc(Cn2nnc(C(F)(F)F)n2)nn1-c1ncccc1Cl [Compound 34] has a chromatographic logP [1, 6] of 3.35.

Cc1cccc(C(=O)C2CC2)c1NC(=O)c1cc(Cn2nnc(C(F)(F)F)n2)nn1-c1ncccc1Cl [Compound 35] gave a pest or weed control at 100 g/ha [2, 5] of 100% and a chromatographic logP [1, 6] of 3.33.
